The results in this text go back to patent US20260297042A1, “BIARYLAMIDE DERIVATIVES AND THEIR USE AS PKMYT1 INHIBITORS” (CANCER RESEARCH TECHNOLOGY LIMITED, priority 2023, published 2026).

For one experiment, the target named is T1, Human PKMYT1 (Homo sapiens, UniProt Q99640).
T1 construct: Human PKMYT1 75-362 was cloned as a TEV cleavable 6xHis fusion; 6xHis (TEV cleavable) (cleaved yes); made in house; host or cells: bacterial cells
T1 sequence (Q99640 75-362): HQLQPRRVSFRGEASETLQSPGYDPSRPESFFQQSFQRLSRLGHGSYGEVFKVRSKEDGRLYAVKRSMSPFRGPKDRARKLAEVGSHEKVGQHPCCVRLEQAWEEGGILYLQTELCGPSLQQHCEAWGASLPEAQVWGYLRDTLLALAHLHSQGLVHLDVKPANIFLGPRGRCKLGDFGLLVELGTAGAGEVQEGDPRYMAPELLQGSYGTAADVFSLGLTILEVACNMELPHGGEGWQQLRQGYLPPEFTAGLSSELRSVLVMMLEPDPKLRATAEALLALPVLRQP
Put plainly: PKMYT1 biochemical ADP-Glo enzymatic assay. The following applies: ADP-Glo; 15 nM PKMYT1 kinase domain, 500 µM ATP, 60 minutes at 26° C.; banded. A digest of the protocol:
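IC50 derived from luminescence (ADP-Glo Max) after PKMYT1 kinase domain, 15 nM, turned over 500 µM ATP for 60 min at 26 °C. Buffer contained 10 mM MgCl2, 1 mM EGTA and 0.01% Brij-35 at pH 7.5.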

A further experiment deals with T2, WEE1 (Homo sapiens, UniProt P30291).
T2 construct: purchased Thermo Fisher PR7373A
T2 sequence (P30291 whole entry): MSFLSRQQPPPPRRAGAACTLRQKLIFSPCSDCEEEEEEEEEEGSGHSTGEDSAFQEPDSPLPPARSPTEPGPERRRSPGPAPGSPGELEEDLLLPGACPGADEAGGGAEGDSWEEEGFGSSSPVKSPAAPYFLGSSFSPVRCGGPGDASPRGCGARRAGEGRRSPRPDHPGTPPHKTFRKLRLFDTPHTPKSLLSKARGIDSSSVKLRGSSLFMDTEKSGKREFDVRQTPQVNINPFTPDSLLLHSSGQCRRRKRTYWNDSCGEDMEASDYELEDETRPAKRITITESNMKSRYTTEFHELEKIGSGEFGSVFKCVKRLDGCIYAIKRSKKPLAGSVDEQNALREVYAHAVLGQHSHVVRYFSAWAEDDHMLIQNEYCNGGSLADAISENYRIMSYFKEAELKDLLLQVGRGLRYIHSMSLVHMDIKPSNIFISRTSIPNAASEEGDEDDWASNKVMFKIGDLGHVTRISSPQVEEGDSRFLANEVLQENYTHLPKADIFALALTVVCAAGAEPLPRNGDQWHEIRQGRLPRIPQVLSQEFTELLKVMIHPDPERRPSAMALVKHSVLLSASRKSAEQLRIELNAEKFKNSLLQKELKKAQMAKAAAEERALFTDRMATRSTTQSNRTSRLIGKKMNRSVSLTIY
Put plainly: Selectivity versus WEE1 assay (ADP-Glo enzymatic assay). The class given is biochemical. The following applies: banded. A digest of the protocol:
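Inhibition is measured as reduced ADP production, detected by luminescence with ADP-Glo, after enzyme (15 nM) and 30 µM ATP react for 60 min at 26° C in 1% DMSO-containing HEPES buffer, pH 7.5. Data are accepted only if replicate IC50s fall within 3-fold and r2 exceeds 0.9.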
For orientation: ADP-Glo first removes unused ATP, then detects ADP through luciferase.

The next experiment concerns OVCAR3 cells. Put plainly: Cancer cell line proliferation assay, nuclear count, OVCAR3 (CCNE1-amplified). The format is cell-based. The following applies: banded. The method, then:
(§1) h-TERT-RPE1 TP53−/− and CCNE1 high expressing clones (clone cell lines 7 and 15) were treated with test compounds dissolved in DMSO at serially diluted concentrations alongside a DMSO only control for around 6 population doublings time. Cells were then fixed with 4% Paraformaldehyde and the cell nuclei were stained with DAPI (Sigma D9542). Images covering each well were acquired by an Opera Phenix® High-Content Screening System (PerkinElmer). Image analysis was performed using Harmony® high-content analysis software (PerkinElmer). Data analysis was performed using Microsoft Excel® and GI50 estimates generated with GraphPad Prism v9. Percent nuclear count was compared to vehicle control wells and used to measure inhibition of proliferation.
(§2) Cancer cell lines with either normal (KYSE-30) or amplified CCNE1 expression (OVCAR3-ovarian cancer) were evaluated for their sensitivity to PKMYT1 inhibitors in a nuclear count assay as described above for h-TERT-RPE1 TP53−/− and a CCNE1 high expressing clones, taking into account the slower cell cycle division times of these lines.

Experiment [1] deals with KYSE-30 cells. Put plainly: Cancer cell line proliferation assay, nuclear count, KYSE-30 (normal CCNE1). The following applies: Homo sapiens, normal CCNE1 expression, banded, read-out: KYSE30 GI50. The class given is cell-based. How it is done: as §1, §2
The next experiment concerns OVCAR 3 cells. Description: Cancer cell line proliferation assay, ATP-based cell viability (Cell Titre Glow), OVCAR 3 (CCNE1-amplified). The following applies: KYSE30 (normal CCNE1) GI50 vs. OVCAR 3 (CCNE1-amplified) GI50. A digest of the protocol: (§3)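 Cells were treated with PKMYT1 inhibitors, then proliferation was assessed with CellTiter-Glo and luminescence read. GI50 values were fitted from the resulting data.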

The subject of experiment [2] is KYSE-30 cells. Description: Cancer cell line proliferation assay, ATP-based cell viability (Cell Titre Glow), KYSE-30 (normal CCNE1). The following applies: Homo sapiens, KYSE-30 cells (normal CCNE1), concentration that achieves 50% cell growth proliferation inhibition, read-out: KYSE30 Gl50. A digest of the protocol: as §3

Broadly, the IC50 is the concentration at which inhibition is half-maximal. `CCN(CC)C(=O)Cn1cc(C)c(Nc2ncc(C(=O)Nc3c(C)ccc(O)c3C)s2)n1` [BAA-207, 2-[[1-[2-(diethylamino)-2-oxo-ethyl]-4-methyl-pyrazol-3-yl]amino]-N-(3-hydroxy-2,6-dimethyl-phenyl)thiazole-5-carboxamide]: the IC50 on Human PKMYT1 was less than 50 nM; on WEE1 (ADP-Glo, 15 nM WEE1, 60 minutes at 26° C.) it was 1000 to 11000 nM. Besides, the “PKMYT1 vs. WEE1 selectivity” value on WEE1 (fold difference in selectivity for PKMYT1 over WEE1, ">N" = at least in this band but could be higher) is reported as “X (100-<1000 fold)”. In addition, the “Selectivity ratio KYSE30 GI50 vs. OVCAR3 GI50” value in the experiment on OVCAR3 cells (GI50 ratio KYSE30 vs. OVCAR3, >N = at least in this band) is given as “Z (>30 fold)”. For the same compound, the GI50 in the experiment with OVCAR3 cells (Homo sapiens, OVCAR-3, CCNE1-amplified ovarian cancer, nuclear count) is less than 500 nM; in the experiment with KYSE-30 cells [1], 3000 to 10000 nM; with KYSE-30 cells [2], more than 5000 nM. In addition, in the experiment with OVCAR 3 cells, the “Selectivity ratio KYSE30 Gl50 vs. OVCAR3 Gl50” value is recorded as “Y (>20 fold)”.
